{"source": "the METLIN SMRT retention time set (Domingo-Almenara et al. 2019)"}
{"assay": "gradient 5% acetonitrile 3 min, to 50% in 2 min, to 85% in 15 min, held 3 min, 100 µL/min", "details": "column: Zorbax Extend-C18 2.1 x 50 mm; eluents: water / acetonitrile, 0.1% formic acid", "outline": "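Retention times come from adduct peaks that were picked computationally and then checked by hand. The standards, pure and pooled in mixtures of ~100 molecules, were run on a Zorbax Extend-C18 column (2.1 × 50 mm, 1.8 μm) at 100 μL/min with water and acetonitrile, each with 0.1% formic acid. Detection was by quadrupole time-of-flight mass spectrometry in positive and negative ionization mode, with a dead volume of 40 μL and a dwell volume of 900 μL.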", "units": {"RP-LC retention time": "s"}}
{"smiles": "Cc1cc(OCC(O)CNCc2ccco2)ccc1Cl", "note": "(configuration not stated)", "RP-LC retention time": 588}
{"smiles": "COC(=O)c1ccc2c(=O)n(Cc3ccc(F)cc3)c(N3CCC(C(N)=O)CC3)nc2c1", "RP-LC retention time": 777}
{"smiles": "CCc1nc(-c2csc(S(=O)(=O)N3CCC(C(=O)NC4CC4)CC3)c2)no1", "RP-LC retention time": 766}
{"smiles": "CN1C(=O)c2cc(C(=O)NCc3ccc(F)cc3)nn2CC1(C)C(=O)NC1CCCC1", "note": "(configuration not stated)", "RP-LC retention time": 747}
{"smiles": "O=C(NCc1csc(-c2ccccc2)n1)C1CCN(S(=O)(=O)c2ccc3c(c2)CCCC3)CC1", "RP-LC retention time": 1100}
{"smiles": "CCCNC(=O)N1CCCC1c1nc(-c2cccc(C)c2)no1", "note": "(configuration not stated)", "RP-LC retention time": 826}
{"smiles": "CCC(CC)NC(=O)C1Cn2cccc2C(=O)N1", "note": "(configuration not stated)", "RP-LC retention time": 629}
{"smiles": "Fc1ccc(C2Cn3nnc(-c4nc(-c5ccccc5Cl)no4)c3CO2)cc1", "note": "(configuration not stated)", "RP-LC retention time": 1170}
{"smiles": "CCc1cccc(NC(=O)C2CCCN(c3cc(=O)n(C)c(=O)n3C)C2)c1", "note": "(configuration not stated)", "RP-LC retention time": 794}
{"smiles": "O=C(c1nc(-c2ccccc2)nc2c1OCO2)N1CCCC1", "RP-LC retention time": 815}
{"smiles": "CC(=O)Oc1ccc2cc(-c3ccccc3)c(=O)oc2c1", "RP-LC retention time": 1000}
{"smiles": "O=C([C@@H]1C[C@H](F)CN1C(=O)Cc1ccsc1)N1CCCCC1", "RP-LC retention time": 657}
{"smiles": "CCN1C(=O)c2cc(C(=O)Nc3cccc(F)c3)nn2CC1(C)C(=O)NC1CCCC1", "note": "(configuration not stated)", "RP-LC retention time": 834}
{"smiles": "CCC(=O)N1CCc2cc(N3CC(C(=O)NCc4ccccc4Cl)CC3=O)ccc21", "note": "(configuration not stated)", "RP-LC retention time": 744}
{"smiles": "O=c1c2sccc2n(Cc2nc(-c3ccc(F)c(Cl)c3)no2)c(=O)n1CCc1ccccc1", "RP-LC retention time": 1230}
{"smiles": "COc1ccc(-c2nc(C(=O)N3CCN(C)CC3)sc2-c2ccc(OC)cc2)cc1", "RP-LC retention time": 748}
{"smiles": "Cn1cc(-c2cc3n(n2)CCC(=O)N3CCCC(=O)N2CCN(c3ccccn3)CC2)c2ccccc21", "RP-LC retention time": 619}
{"smiles": "Cc1ccc(NS(=O)(=O)c2ccc(-c3nnc(C4CCC4)o3)o2)c(C)c1", "RP-LC retention time": 977}
{"smiles": "CCN1CCC(N(Cc2cccs2)C(=O)Nc2cc(OC)cc(OC)c2)CC1", "RP-LC retention time": 651}
{"smiles": "CC1CCN(C(=O)c2ccc(OCC3CCCN(C(=O)c4ccc(C#N)cc4)C3)cc2)CC1", "note": "(configuration not stated)", "RP-LC retention time": 956}
{"smiles": "COc1cccc(N2CCN(c3ccc(S(=O)(=O)C(C)C)nn3)CC2)c1", "RP-LC retention time": 847}
{"smiles": "CCNc1nc(C)cc(N2CCN(C(=O)Nc3ccc(C)c(C)c3)CC2)n1", "RP-LC retention time": 684}
{"smiles": "CCc1cccc(NC(=O)C2(C)CCCCC(=O)N2)c1", "note": "(configuration not stated)", "RP-LC retention time": 753}
{"smiles": "CCC(C)n1ncn(-c2ccc(N3CCN(c4ccc(OC[C@@H]5CO[C@@](Cn6cncn6)(c6ccc(Cl)cc6Cl)O5)cc4)CC3)cc2)c1=O", "note": "(some centres not stated)", "RP-LC retention time": 1060}
{"smiles": "CN1CCc2nnc(C3CCN(C(=O)Nc4cc(Cl)cc(Cl)c4)C3)n2CC1", "note": "(configuration not stated)", "RP-LC retention time": 623}
{"smiles": "CC(NC(=O)C1CCN(S(C)(=O)=O)c2cc(Cl)ccc2O1)c1ccccc1", "note": "(configuration not stated)", "RP-LC retention time": 935}
{"smiles": "CSc1ccc2c(c1)C(N1CCN(C)CC1)Cc1ccccc1S2", "note": "(configuration not stated)", "RP-LC retention time": 869}
{"smiles": "O=C(NCc1ccc(C(F)(F)F)cc1)C1=C2CCCN2c2ccccc2S1(=O)=O", "RP-LC retention time": 922}
{"smiles": "Cc1ccccc1NC(=O)N1CCC2(CC1)NC(=O)c1cc(F)ccc1N2C", "RP-LC retention time": 1070}
{"smiles": "COc1cccc(OCC2c3ccsc3CCN2C(=O)CN(CC2CCCO2)C(=O)C(C)C)c1", "note": "(configuration not stated)", "RP-LC retention time": 906}
{"smiles": "CCC(=O)N1CCc2ccccc2C1C(=O)NCc1ccc(Br)cc1", "note": "(configuration not stated)", "RP-LC retention time": 887}
{"smiles": "CCC(=O)N1CCCC1c1nc2ccccc2n1CC(=O)N(c1ccccc1)C(C)C", "note": "(configuration not stated)", "RP-LC retention time": 709}
{"smiles": "O=C(c1cccc2[nH]ccc12)N1CCN(c2cc(-c3cccs3)[nH]n2)CC1", "RP-LC retention time": 832}
{"smiles": "CN1c2cc(F)ccc2C(=O)NC12CCN(C(=O)Cc1ccccc1)CC2", "RP-LC retention time": 779}
{"smiles": "C[C@H]1CNCCc2ccc(Cl)cc21", "RP-LC retention time": 652}
{"smiles": "Cc1ccc(CNC(=O)Cn2c(C)cc(-c3nnc(-c4ccc(F)cc4)o3)c2C)o1", "RP-LC retention time": 919}
{"smiles": "COc1cccc(N2C(=O)N(Cc3cccc(F)c3)S(=O)(=O)c3cccnc32)c1", "RP-LC retention time": 1010}
{"smiles": "CC(C)c1noc(-c2ccn3c(CC(=O)N4CCSCC4)nnc3c2)n1", "RP-LC retention time": 726}
{"smiles": "CCC(C(=O)Nc1ccc(C(C)=O)cc1)n1cnc2nc3c(cc2c1=O)CCCC3", "note": "(configuration not stated)", "RP-LC retention time": 748}
{"smiles": "COc1cccc(-c2cc(C(=O)N3CCN(c4ccc(N5CCOCC5)nn4)CC3)[nH]n2)c1", "RP-LC retention time": 610}
{"smiles": "O=C(Nc1cccnc1)c1ccc(CNS(=O)(=O)c2cccc(C(F)(F)F)c2)cc1", "RP-LC retention time": 635}
{"smiles": "COc1cccc(Nc2c(-c3ccc(C(=O)O)cc3)nc3cnccn23)c1", "RP-LC retention time": 681}
{"smiles": "CN1C(=O)CSc2cnn(CC(=O)N3CCN(c4ccc(F)cc4)CC3)c(=O)c21", "RP-LC retention time": 706}
{"smiles": "N#Cc1cccc(NC(=O)Cn2cccc(-c3nc(-c4ccc(Br)cc4)no3)c2=O)c1", "RP-LC retention time": 958}
{"smiles": "O=C(NC1CCCCCC1)c1cc(NS(=O)(=O)c2ccc(Cl)cc2)cnc1N1CCNCC1", "RP-LC retention time": 698}
{"smiles": "O=C(NCCc1cccs1)C1CCCN(c2nccn3nc(-c4ccccc4Cl)cc23)C1", "note": "(configuration not stated)", "RP-LC retention time": 947}
{"smiles": "CC1=C(c2ccc(C)c(C)c2)S(=O)(=O)N=C1N1CCCN(C(=O)C(C)C)CC1", "RP-LC retention time": 854}
{"smiles": "CCOc1ccccc1C(=O)Nc1cccn2cnnc12", "RP-LC retention time": 772}
{"smiles": "O=C(Nc1nc2ccccc2s1)c1ccc(S(=O)(=O)N2CCc3ccccc32)cc1", "RP-LC retention time": 1040}
{"smiles": "Cc1ccccc1Nc1c(-c2ccc(N3CCOCC3)cc2)nc2ccc(Cl)cn12", "RP-LC retention time": 805}
{"smiles": "CCOc1ccc(-n2nnc(-c3nc(-c4ccccc4OC)cs3)c2N)cc1", "RP-LC retention time": 1170}
{"smiles": "CCOC(=O)c1cc([N+](=O)[O-])sc1NC(=O)CCCS(=O)(=O)c1ccc(F)cc1", "RP-LC retention time": 965}
{"smiles": "Cc1noc(CNC(=O)C2CCN(C(=O)c3snnc3C)CC2)n1", "RP-LC retention time": 563}
{"smiles": "Cc1cc(N2CCN(S(=O)(=O)c3ccc(Cl)c(Cl)c3)CC2)nc(NC2CCCCC2)n1", "RP-LC retention time": 922}
{"smiles": "COc1ccc(OC)c(NC(=O)Cn2cccc(-c3nc(-c4ccc(Cl)cc4)no3)c2=O)c1", "RP-LC retention time": 1000}
{"smiles": "Cc1ccc(C2NC(=O)N(CC(=O)Nc3cc(F)cc(F)c3)C3=C2C(=O)OC3)cc1", "note": "(configuration not stated)", "RP-LC retention time": 844}
{"smiles": "Cc1sc(-c2noc(C3CC3)n2)cc1S(=O)(=O)N1CCC(C(=O)NC2CCCCCC2)CC1", "RP-LC retention time": 1080}
{"smiles": "Nc1cc(C2CCN(S(=O)(=O)c3cccc(C(F)(F)F)c3)CC2)no1", "RP-LC retention time": 794}
{"smiles": "CC(C)N1C(=O)C(C)(C(=O)NC2CCCCC2)Oc2cccnc21", "note": "(configuration not stated)", "RP-LC retention time": 1010}
{"smiles": "COc1ccc(CNC(=O)C2CCCN(c3cnc4nccnc4c3)C2)cc1", "note": "(configuration not stated)", "RP-LC retention time": 676}
{"smiles": "COc1cccc(CNC(=O)Cn2ncc3c(N4CCN(c5ccccn5)CC4)ncnc32)c1", "RP-LC retention time": 598}
{"smiles": "CC(NC(=O)C1=CCN(Cc2ccc(F)cc2)CC1)c1ccccc1", "note": "(configuration not stated)", "RP-LC retention time": 640}
{"smiles": "Cc1cccc(S(=O)(=O)N2CC=C(c3cn(C)c4ncccc34)CC2)c1", "RP-LC retention time": 898}
{"smiles": "Cc1ccc(C)c(-c2cc3c4nn(CC(=O)Nc5cc(F)ccc5F)c(=O)n4ccn3n2)c1", "RP-LC retention time": 1050}
{"smiles": "Cc1ccc(CN(C(=O)C(C)Oc2ccc(Cl)c(C)c2)C2CCS(=O)(=O)C2)o1", "note": "(configuration not stated)", "RP-LC retention time": 1020}
{"smiles": "O=C(c1c(F)cccc1F)N1CCN=C1N1CCN(c2ccccc2F)CC1", "RP-LC retention time": 720}
{"smiles": "CC(C)Cn1c(-c2ccc(N(C)C)cc2)nc2ccccc21", "RP-LC retention time": 748}
{"smiles": "CCn1ccc2sc(C)c(C(=O)NCc3ccc(F)cc3Cl)c2c1=O", "RP-LC retention time": 916}
{"smiles": "COc1ccc(-c2cc(C(F)F)nn2-c2ccc(S(N)(=O)=O)cc2)cc1F", "RP-LC retention time": 997}
{"smiles": "COc1ccccc1NC(=O)Nc1ccc2c(c1)N(S(=O)(=O)c1cccs1)CCC2", "RP-LC retention time": 967}
{"smiles": "CC(C)N1CCN(C(=O)c2cnc(-c3ccccc3)nc2-c2ccncc2)CC1", "RP-LC retention time": 626}
{"smiles": "CC(=O)Oc1cc(C(C)C)c(OCCN(C)C)cc1C", "RP-LC retention time": 708}
{"smiles": "COc1ccc(-c2noc(C3CC(=O)N(c4ccc(Cl)cc4)C3)n2)cc1", "note": "(configuration not stated)", "RP-LC retention time": 1040}
{"smiles": "CCn1c(=O)sc2cc(S(=O)(=O)N3CCC(C(=O)NCCc4ccccc4)CC3)ccc21", "RP-LC retention time": 942}
{"smiles": "Cc1ccc(NC(=O)N(C)CCc2noc(COc3ccc(F)cc3)n2)cc1", "RP-LC retention time": 926}
{"smiles": "CC(C)(C)NC[C@@H](O)COc1cccc2c1CCCC2=O", "RP-LC retention time": 689}
{"smiles": "O=C(Cc1nnc(-c2ccccc2)o1)NC1CCCC1", "RP-LC retention time": 675}
{"smiles": "CN1C(=O)CCSc2ccccc21", "RP-LC retention time": 711}
{"smiles": "Cc1ccc(C)c(NC(=O)N2CCCC2c2nc(-c3ccc(F)cc3F)no2)c1", "note": "(configuration not stated)", "RP-LC retention time": 1010}
{"smiles": "O=C(Nc1ccc2c(c1)C(=O)Nc1ccccc1O2)c1nc2ccccc2s1", "RP-LC retention time": 928}
{"smiles": "Cc1c(C(=O)Nc2ccccc2)sc2nc[nH]c(=O)c12", "RP-LC retention time": 679}
{"smiles": "O=C(CCc1c(-c2ccc(F)cc2)nc2ccccn12)Nc1cccc(Br)c1", "RP-LC retention time": 730}
{"smiles": "CCn1c(C)c(CCC(=O)NCCOC)c(=O)n2nc(-c3ccccc3)nc12", "RP-LC retention time": 665}
{"smiles": "Cc1cc(S(=O)(=O)N2CCCC2c2nc(-c3cccc(Cl)c3)no2)ccc1F", "note": "(configuration not stated)", "RP-LC retention time": 1240}
{"smiles": "CCn1cc(S(=O)(=O)Nc2cc(Cl)ccc2OC)c2cccnc21", "RP-LC retention time": 908}
{"smiles": "Cc1cc(N2CCN(S(=O)(=O)c3cc(F)ccc3C)CC2)nc(NC2CCCCC2)n1", "RP-LC retention time": 864}
{"smiles": "Cc1ccccc1C(=O)Nc1nnc(SCc2nnc(-c3ccccc3C)o2)s1", "RP-LC retention time": 948}
